# Measurements from patent US6124266A, “Sulpholipid composition and methods for treating skin disorders” (Scotia Lipid Teknik AB, priority 1996, dated 2000).
# Where two headings read alike, the source gives them in different places.
# Legend:
# [1] = biological target: T1, PAF receptor (Homo sapiens, UniProt P25105); experiment: [3H]PAF receptor binding assay; details: human polymorphonuclear leukocytes, 120 min, 20° C., pH 7.0, 0.35-0.40 nM [3H]PAF; mean of 2-4 experiments in triplicate; read-out: IC50, displacement of [3H]PAF binding
# T1 construct: endogenous in cells; host or cells: human polymorphonuclear leukocytes (intact cells from concentrated suspensions of human leukocytes)
# T1 sequence (P25105 whole entry): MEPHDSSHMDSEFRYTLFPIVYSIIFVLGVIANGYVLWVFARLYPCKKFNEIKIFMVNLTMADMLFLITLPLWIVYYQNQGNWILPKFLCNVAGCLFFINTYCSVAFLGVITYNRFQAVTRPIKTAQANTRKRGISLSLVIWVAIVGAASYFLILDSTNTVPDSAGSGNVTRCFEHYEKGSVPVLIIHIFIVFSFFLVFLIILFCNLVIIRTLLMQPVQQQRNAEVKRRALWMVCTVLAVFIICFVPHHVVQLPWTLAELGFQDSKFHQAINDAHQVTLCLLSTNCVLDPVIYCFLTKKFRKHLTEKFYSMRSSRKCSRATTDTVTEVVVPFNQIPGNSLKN
# Text: (§1) The PAF induced exocytosis model described above is used for screening for PAF receptor antagonists since it is a rapid, reproducable and reliable so called functional assay for PAF. However, a number of other actions, like elastase inhibition or membrane stabilisation, would also result in an inhibitory effect in the model which consequently is not exclusive for PAF receptor antagonism. To elucidate if SQDG acts through PAF receptor antagonism in the neutrophil, a receptor binding model using [3H]PAF as the radioligand was used.
# Cell preparation: For the receptor binding experiments the cells were prepared in the same way as described above except that concentrated suspensions of human leukocytes in a CDP-adenine solution were used and in the final step the cells were suspended in the incubation buffer and the cell count was adjusted to 3.1×10^6 cells/ml.
# [^3 H]PAF (C18; 1-O-[^3 H]octadecyl-2-acetyl-sn-3-phosphocholine; Amersham, England) receptor binding was studied in human polymorphonuclear leukocytes (2.5×10^6 cells/ml) using a method recently reevaluated by us (Vasange et al., in press, 1996). Incubations were performed for 120 min at 20° C. in a total volume of 1.0 ml containing […] 25 mM Tris HCl, 130 mM NaCl, 5.5 mM KCl, 1.4 mM CaCl2, 0.7 mM MgCl2, 10 mM glucose, 0.5% BSA and 0.35-0.40 nM [^3 H]PAF. Final pH was 7.0 at the incubation temperature used. Non-specific binding was determined with 1 μM C16-PAF (Bachem, Switzerland). The incubation contents were rapidly filtered by vacuum over Whatman GF/C glass-fibre filters using a 12 well Skatron Cell Harverster (Skatron A/S, Norway) and washed with 3×2 ml incubation buffer containing 0.1% BSA. The filtration took less than 15 s. Filters were also pre-soaked with incubation buffer containing 0.1% BSA. Following filtration, the filters were dried in an oven at 70° C. for 30 min and equilibrated for two hours in the scintillation vials before counting in a Packard scintillator at an efficiency of 55%. […]
# [2] = system: PAF receptor; details: cited from earlier work
# [3] = system: PAF induced elastase release in human neutrophils; experiment: PAF induced exocytosis (elastase assay); type: cell-based; details: for IC50: human leucocytes, 37° C., 10 min, mean of 2-4 experiments in duplicate, read-out: IC50, inhibition of PAF induced elastase release; for inhibitory activity in the PAF induced exocytosis model: in concentrations around the IC50 of SQDG
# Protocol: In this test, which is also called the elastase assay, the effect of the extracts on inhibiting the exocytosis induced by PAF was examined. This model was used to guide the fractionation of the extracts or isolated compounds.
# Cell preparation: Peripheral blood anti-coagulated with heparin was obtained from healthy volunteers at the University Hospital (in Uppsala, Sweden). After sedimentation with 10% Dextran T-500 (Pharmacia Fine Chemicals) for 30 min at 20° C. the supernatant was removed and centrifuged at 200×g for 30 min. The sediments were treated with one volume of ice-cold water for 21 s followed by the addition of 9 volumes of Mg^2+ and Ca^2+ free PBS in order to lyse the remaining erythrocytes. After centrifugation (200×g for 10 min at 4° C.) the leucocytes were suspended in PBS (containing Mg^2+ and Ca^2+ and Cytochalasin B, Serva, 5 μg/ml) at a concentration of 10-30×10^6 cells/ml.
# The assay was performed as described by Tuominen et al., Planta Medica 58, 306-310 (1992). In short leucocytes were incubated at 37° C. in PBS containing 2.5% BSA together with SAAVNA (N-succinyl-L-alanyl-L-alanyl-L-valine-p-nitroanilide, Bachem), the inhibitor in different concentrations or the vehicle (max. 0.1% DMSO) and PAF (Bachem) for 10 min. Blank tubes without PAF were run in parallel. The reaction was stopped by the addition of 2% citric acid and after the centrifugation, the samples were measured in a UV spectrophotometer at 405 nm. The absorbance of the corresponding blank tube was subtracted from the sample and the inhibition of PAF induced elastase release was calculated as the […] in absorbance as compared to the vehicle. The samples were analyzed as 4-5 concentrations ranging from 10^-3 M to 10^-7 M. They were dissolved in 10% DMSO (the isolated compound) or cyclodextrin (BN 52021, used as a reference) and then diluted with the buffer. The final concentration of DMSO or cyclodextrin never exceeded 0.1%.
# as §1
# [4] = system: oedema induced by carrageenan potentiated by PAF; details: rat, in vivo; cited from earlier work
# [5] = system: ethyl phenyl propiolate (EPP) induced rat ear oedema; experiment: Rat ear oedema (EPP induced); type: in vivo; details: mepyramine 1 μg/ear (positive control), 2 hours, 6 ears, p<0.01
# Protocol: The rat ear oedema test is aimed to be used for detection of drugs with topical anti-inflammatory activity. It is based on the work by Tonelli et al., Endocrinology 77, 625-634, 1965, but instead of using the carcinogenic croton oil as induced, ethyl phenyl propiolate (EPP) is applied topically on the rat ears. The oedema develops rapidly (about 30 minutes) and starts to decline after two hours. Several measurements can be made by using a special measuring device and the values obtained with application of both EPP and the drug to be investigated are compared to values obtained with EPP alone.
# The mechanism of the EPP induced oedema is not completely understood but it is known that compounds with broad anti-inflammatory action, like steroidal anti-inflammatory drugs, are active in this assay. The oedema can also be induced by other agents, such as arachidonic acid, and in that specific case the oedema is believed to develop through the action of the […], inflammatory mediators, leukotrienes. They can also contribute to the EPP oedema.
# The Calaguala methanolic extract was tested in this model on several occasions. […]
# The thickness of ears is measured after 2 hours. […] The significance of the values obtained was determined by using Students t-test (one tailed analysis). […]
# The thickness of the ears was measured after 2 hours. […]
# [6] = system: carrageenan induced rat paw oedema; experiment: Rat paw oedema induced by carrageenan; type: in vivo, rat (Spraque Dawley); details: Na-salicylate 200 mg/kg (positive control), p < 0.0005
# Protocol: The most commonly used inducer is carrageenan which is injected to the hind paw of male Spraque Dawley rats.
# Several tests were performed with the methanolic Calaguala extract which was applied orally in doses 500-2000 mg/kg. As positive control the cyclo-oxygenase inhibitor Na-salicylate (200 mg/kg) was used.
# The significancies were calculated using Students t-test (one tailed).
# [7] = system: leukotriene B4 synthesis in human leucocytes; details: cited from earlier work
# [8] = system: tumour promotion; details: Chem. Pharm. Bull. 41 (9), 1664-1666, 1993; cited from earlier work
compound,measurement,setting,value
COc1ccc(NC(=S)N2CCc3c(sc4c3C(c3ccccc3Cl)=NCc3nnc(C)n3-4)C2)cc1 [BN 50730],IC50,[1],0.04 µM
same,PAF antagonistic activity in vitro (compared with BN 52021),[2]; Guinot 1994,several ten-folds more potent
CC1C(=O)OC2C(O)C34C5CC(C(C)(C)C)C36C(OC(=O)C6O)OC4(C(=O)O5)C12O (stereo not drawn) [BN 52021],IC50,[1],25 µM
same,IC50,[3],80 µM
same,effect on PAF enhancement of carrageenan induced oedema,[4],capable of abolishing this enhancement
same,anti-inflammatory properties in several in vivo and in vitro models,[2],anti-inflammatory properties
COc1ccc(CN(CCN(C)C)c2ccccn2)cc1 [Mepyramin],"Mean decrease in oedema (ear thickness, Table 2)",[5],44%
O=C(O)c1ccccc1O [Na-salicylate],Mean decrease in oedema (Table 4),[6],43%
"CCCCCCCCCCCCCCCC(=O)OC[C@H](CO[C@H]1O[C@H](CS(=O)(=O)O)[C@@H](O)[C@H](O)[C@H]1O)OC(=O)CCCCCCCCCCCCCCC [SQDG of the formula III, 1,2-O,O-dipalmitoyl-[6'-sulpho-α-D-quinovopyranosyl(1'→3)]-sn-glycerol]",IC50,[1],2 µM
same,IC50,[3]; Neutrophil,10 µM
CCCCC/C=C\C/C=C\C/C=C\C/C=C\CCCC(=O)O [arachidonic acid],inhibition of leukotriene B4 synthesis,[7],inhibitory activity
CCCCC/C=C\C/C=C\CCCCCCCC(=O)O [linoleic acid],inhibition of leukotriene B4 synthesis,[7],inhibitory activity
CC/C=C\C/C=C\C/C=C\CCCCCCCC(=O)O [linolenic acid],inhibition of leukotriene B4 synthesis,[7],inhibitory activity
CCCCCCCC/C=C\CCCCCCCC(=O)O [oleic acid],inhibition of leukotriene B4 synthesis,[7],comparable inhibitory patterns
digalactosyldiacylglycerol [DGDG],inhibition of tumour promotion compared with SQDG,[8],inhibit tumour promotion more intensely than SQDG
same,inhibitory activity in the PAF induced exocytosis model,[3],no inhibitory activity
monogalactosyldiacylglycerol [MGDG],inhibition of tumour promotion compared with SQDG,[8],inhibit tumour promotion more intensely than SQDG
same,inhibitory activity in the PAF induced exocytosis model,[3],no inhibitory activity
